Results from PMC10593844, “Structure-function analyses reveal key molecular determinants of HIV-1 CRF01_AE resistance to the entry inhibitor temsavir” (Nature Communications, 2023).
“And” between values parts separate entries of the source, which are not always exact repeats. Equal values may be shown once. Read-outs that look alike come from different tables or passages of the source.

Columns and labels:
[1] = test system: HIV-1 pseudovirus bearing EnvJR-FL S375N; test: organism not typed; type: cell-based; conditions: for Relative infectivity (%): JRFL S375N
[2] = test system: HIV-1 pseudovirus bearing EnvJR-FL S375M; test: organism not typed; type: cell-based
[3] = test system: HIV-1 pseudovirus bearing EnvJR-FL S375F; test: organism not typed; type: cell-based
[4] = test system: HIV-1 pseudovirus bearing EnvJR-FL S375W; test: organism not typed; type: cell-based; conditions: for Relative infectivity (%): JRFL S375W
[5] = test system: HIV-1 pseudovirus bearing CRF01_AE 92TH023 Env LMHS; test: organism not typed; type: cell-based; conditions: for Relative infectivity (%): 92TH023 LMHS
[6] = test system: HIV-1 pseudovirus bearing CRF01_AE 92TH023 Env LMHT; test: organism not typed; type: cell-based; conditions: for Relative infectivity (%): 92TH023 LMHT
[7] = test system: HIV-1 pseudovirus bearing CRF01_AE CM244 Env WT; test: organism not typed; type: cell-based; conditions: for Relative infectivity (%): CM244 WT
[8] = test system: HIV-1 pseudovirus bearing CRF01_AE CM244 Env LMHS; test: organism not typed; type: cell-based; conditions: for Relative infectivity (%): CM244 LMHS
[9] = test system: HIV-1 pseudovirus bearing clade B YU2 Env S375H; test: organism not typed; type: cell-based; conditions: for Relative infectivity (%): YU2 S375H
[10] = test system: HIV-1 pseudovirus bearing clade B YU2 Env LM; test: organism not typed; type: cell-based; conditions: for Relative infectivity (%): YU2 LM
[11] = test system: HIV-1 pseudovirus bearing clade B YU2 Env LM+ST; test: organism not typed; type: cell-based; conditions: for Relative infectivity (%): YU2 LM+ST
[12] = test system: HIV-1 pseudovirus bearing clade B YU2 Env LM+SH; test: organism not typed; type: cell-based; conditions: for Relative infectivity (%): YU2 LM+SH
[13] = test system: HIV-1 pseudovirus bearing clade B YU2 Env D474N/M475I/R476K; type: cell-based
[14] = test system: HIV-1JR-FL Env S375N on HEK293T cells; type: binding; conditions: JRFL S375N; temsavir 10 µM; listed as TMR
[15] = test system: HIV-1JR-FL Env S375M on HEK293T cells; type: binding; conditions: JRFL S375M; temsavir 10 µM; listed as TMR
[16] = test system: HIV-1JR-FL Env S375F on HEK293T cells; type: binding; conditions: JRFL S375F; temsavir 10 µM; listed as TMR
[17] = test system: HIV-1JR-FL Env S375W on HEK293T cells; type: binding; conditions: JRFL S375W; temsavir 10 µM; listed as TMR
[18] = test system: CRF01_AE 92TH023 Env LM on HEK293T cells; type: binding; conditions: 92TH023 LM; temsavir 10 µM; listed as TMR
[19] = test system: CRF01_AE 92TH023 Env LMHS on HEK293T cells; type: binding; conditions: 92TH023 LMHS; temsavir 10 µM; listed as TMR
[20] = test system: CRF01_AE 92TH023 Env LMHT on HEK293T cells; type: binding; conditions: 92TH023 LMHT; temsavir 10 µM; listed as TMR
[21] = test system: CRF01_AE CM244 Env LM on HEK293T cells; type: binding; conditions: temsavir 10 µM, listed as TMR
[22] = test system: CRF01_AE CM244 Env LM+HS on HEK293T cells; type: binding; conditions: temsavir 10 µM, listed as TMR
[23] = target: T1, clade B YU2 Env S375T on HEK293T cells (Human immunodeficiency virus type 1 group M subtype B, UniProt P35961, S370T); type: binding; conditions: temsavir 10 µM, listed as TMR
T1 construct: expressed in transfected cells; host or cells: HEK293T (pSVIIIenv co-transfected with a Tat expressor)

CRF01_AE strains = test system: CRF01_AE strains; set-up: method as in PMID 30604750; conditions: CRF01_AE strains; cited from earlier work

With `COc1cnc(-n2cnc(C)n2)c2[nH]cc(C(=O)C(=O)N3CCN(C(=O)c4ccccc4)CC3)c12` [Temsavir, temsavir] the IC50 ([1]; Cf2Th-CD4/CCR5) was 1.22 nM, the “Relative infectivity (%)” value ([1]; Temsavir 0.1 nM) was 85.6384% and 86.7177% and 89.7623% and the “Relative infectivity (%)” value ([1]; Temsavir 0.5 nM) was 73.4943% and 55.2266% and 75.8961%. For the same compound, the “Relative infectivity (%)” value ([1]; Temsavir 25 nM) was 4.928% and 3.547% and 2.352% and 8.953%, the “Relative infectivity (%)” value ([1]; Temsavir 100 nM) was 2.171% and 1.397% and 0.7541% and 3.487% and the IC50 ([2]; Cf2Th-CD4/CCR5) was 64.7 nM. The “Relative infectivity (%)” value ([2]; JRFL S375M, Temsavir 0.1 nM) was 98.6007% and 143.038% and 92.762%, the IC50 ([3]; Cf2Th-CD4/CCR5) was > 100 nM and the “Relative infectivity (%)” value ([3]; JRFL S375F, Temsavir 0.1 nM) was 97.0588% and 121.506% and 78.411%. The IC50 ([4]; Cf2Th-CD4/CCR5) was > 100 nM, the “Relative infectivity (%)” value ([4]; Temsavir 0.1 nM) was 99.9863% and 100.025% and 95.7102% and the “Relative infectivity (%)” value ([4]; Temsavir 0.5 nM) was 97.6131% and 107.833% and 88.0394%. The “Relative infectivity (%)” value ([4]; Temsavir 1 nM) was 112.34% and 95.1648% and 85.749%, the “Relative infectivity (%)” value ([4]; Temsavir 5 nM) was 108.208% and 99.6983% and 99.0301% and the “Relative infectivity (%)” value ([5]; Temsavir 1 nM) was 49.3528% and 37.816% and 43.3804%. The “Relative infectivity (%)” value ([5]; Temsavir 5 nM) was 29.4428% and 33.6115% and 29.1035%, the “Relative infectivity (%)” value ([5]; Temsavir 10 nM) was 21.0612% and 17.7261% and 12.1457% and the “Relative infectivity (%)” value ([5]; Temsavir 50 nM) was 7.315% and 6.366% and 6.4059%. The IC50 ([5]; Cf2Th-CD4/CCR5) was 0.89 nM, the “Relative infectivity (%)” value ([6]; Temsavir 1 nM) was 42.8978% and 67.1593% and 55.5357% and the “Relative infectivity (%)” value ([6]; Temsavir 5 nM) was 44.0227% and 46.691% and 23.9805%. The “Relative infectivity (%)” value ([6]; Temsavir 50 nM) was 14.3245% and 26.4308% and 14.3408%, the IC50 ([6]; Cf2Th-CD4/CCR5) was 1.31 nM and the “Relative infectivity (%)” value ([7]; Temsavir 1 nM) was 91.0915% and 114.42% and 104.549%. The “Relative infectivity (%)” value ([7]; Temsavir 5 nM) was 80.9718% and 103.03% and 93.7921%, the “Relative infectivity (%)” value ([7]; Temsavir 10 nM) was 79.7783% and 110.299% and 108.245% and the “Relative infectivity (%)” value ([7]; Temsavir 50 nM) was 78.0773% and 106.103% and 90.5088%. For the same compound, the IC50 ([7]; Cf2Th-CD4/CCR5) was > 50 nM, the “Relative infectivity (%)” value ([8]; Temsavir 5 nM) was 5.229% and 3.403% and 2.611% and the “Relative infectivity (%)” value ([8]; Temsavir 10 nM) was 1.16% and 4.177% and 2.605%. For the same compound, the “Relative infectivity (%)” value ([8]; Temsavir 50 nM) was 0.3118% and 0.2016% and 0.39%, the IC50 ([8]; Cf2Th-CD4/CCR5) was 0.7 nM and the IC50 ([9]; Cf2Th-CD4/CCR5) was 22.9 nM. For the same compound, the “Relative infectivity (%)” value ([9]; Temsavir 1 nM) was 63.2919% and 87.0597% and 84.5852%, the “Relative infectivity (%)” value ([9]; Temsavir 5 nM) was 57.7086% and 71.798% and 64.2482% and the “Relative infectivity (%)” value ([9]; Temsavir 10 nM) was 66.6494% and 65.3275% and 50.1024%. For the same compound, the “Relative infectivity (%)” value ([9]; Temsavir 50 nM) was 26.1516% and 30.7973% and 25.917%, the “Relative infectivity (%)” value ([9]; Temsavir 100 nM) was 13.7111% and 12.275% and 13.4865% and the IC50 ([10]; Cf2Th-CD4/CCR5) was 9.17 nM. For the same compound, the “Relative infectivity (%)” value ([10]; Temsavir 1 nM, Fig 2f) was 76.4591% and 76.4018% and 119.182%, the “Relative infectivity (%)” value ([10]; Temsavir 2 nM, Fig S1) was 74.57% and 102.72% and 96.57% and the “Relative infectivity (%)” value ([10]; Temsavir 5 nM, Fig 2f) was 65.3412% and 84.0034% and 74.4376%. For the same compound, the “Relative infectivity (%)” value ([10]; Temsavir 10 nM, Fig 2f) was 41.1017% and 43.3512% and 50.8185%, the “Relative infectivity (%)” value ([10]; Temsavir 10 nM, Fig S1) was 72.47% and 80.59% and 43.3% and the “Relative infectivity (%)” value ([10]; Temsavir 50 nM, Fig 2f) was 13.0704% and 12.6708% and 13.2107%. The “Relative infectivity (%)” value ([10]; Temsavir 50 nM, Fig S1) was 31.31% and 45.33% and 30.59%, the “Relative infectivity (%)” value ([10]; Temsavir 100 nM, Fig 2f) was 5.153% and 3.308% and 7.353% and the “Relative infectivity (%)” value ([10]; Temsavir 100 nM, Fig S1) was 8.15% and 12.22% and 6.99%. For the same compound, the IC50 ([11]; Cf2Th-CD4/CCR5) was 32.1 nM, the “Relative infectivity (%)” value ([11]; Temsavir 1 nM) was 95.2565% and 91.9655% and 79.6279% and the “Relative infectivity (%)” value ([11]; Temsavir 5 nM) was 83.0048% and 82.0339% and 77.855%. For the same compound, the “Relative infectivity (%)” value ([11]; Temsavir 10 nM) was 75.1553% and 73.7876% and 56.2664%, the “Relative infectivity (%)” value ([11]; Temsavir 50 nM) was 36.2326% and 38.0343% and 31.1158% and the “Relative infectivity (%)” value ([11]; Temsavir 100 nM) was 20.7287% and 13.4951% and 13.1747%. For the same compound, the IC50 ([12]; Cf2Th-CD4/CCR5) was > 100 nM, the “Relative infectivity (%)” value ([12]; Temsavir 1 nM) was 101.627% and 98.3187% and 88.9144% and the “Relative infectivity (%)” value ([12]; Temsavir 5 nM) was 105.436% and 97.7235% and 87.2207%. For the same compound, the “Relative infectivity (%)” value ([12]; Temsavir 10 nM) was 114.432% and 105.33% and 87.5665%, the “Relative infectivity (%)” value ([12]; Temsavir 50 nM) was 115.171% and 108.587% and 70.9415% and the “Relative infectivity (%)” value ([12]; Temsavir 100 nM) was 115.039% and 106.712% and 94.0587%. For the same compound, the “Relative infectivity (%)” value ([13]; Temsavir 5 nM) was 61.12% and 58.84% and 77.63%, the “Relative infectivity (%)” value ([13]; Temsavir 100 nM) was 18.08% and 29.17% and 19.26% and the “sCD4 binding (+TMR) - Fold over DMSO” value [14] was 0.2273 and 0.2477 and 0.2229. The “sCD4 binding (+TMR) - Fold over DMSO” value [15] was 0.2258 and 0.2038 and 0.2793, the “sCD4 binding (+TMR) - Fold over DMSO” value [16] was 0.9879 and 0.8506 and 0.9038 and the “sCD4 binding (+TMR) - Fold over DMSO” value [17] was 1.038 and 0.9906 and 0.8801. For the same compound, the “sCD4 binding (+TMR) - Fold over DMSO” value [18] was 1.042 and 0.933 and 0.9789, the “sCD4 binding (+TMR) - Fold over DMSO” value [19] was 0.3873 and 0.484 and 0.5948 and the “sCD4 binding (+TMR) - Fold over DMSO” value [20] was 0.7044 and 0.6853 and 0.7442. The “sCD4 binding (+TMR) - Fold over DMSO” value [21] was 1.043 and 1.054 and 0.9268, the “sCD4 binding (+TMR) - Fold over DMSO” value [22] was 0.6661 and 0.4581 and 0.6625 and the “sCD4 binding (+TMR) - Fold over DMSO” value [23] was 0.6011 and 0.7082 and 0.7739. The IC50 (CRF01_AE strains) was > 5800 nM.
